Experimental findings from ChEMBL document CHEMBL1201862, “PubChem BioAssay data set” (2004) are described below.

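Growth conditions: 96-well plates. Treatment: test compound, 48 hours, 5 concentrations. Analysis: linear interpolation between bracketing concentrations; unreached endpoints set to highest concentration. Here, GI50 denotes the concentration required for 50% inhibition of growth.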 Calls of active or inactive are those of the source. Cut-off read from the data, not from the text of the source: active = GI50 up to about 1.1 µM and inactive = higher. A value given as a limit tells only on which side of the number the result lay.

Test systems include KM12; MCF7; UACC-257; NCI-H226; BT-549; MOLT-4; SK-OV-3; SF-539; ACHN; UO-31; SN12C; OVCAR-8; NCI-H522; CAKI-1; LOX IMVI; SNB-19; HCT-15; OVCAR-4; Malme-3M; OVCAR-3.
Assay in all cases: NCI anticancer screen, dose series, 48 h

Take `C=C(C)C1Cc2c(cc(OC)c3c(=O)c4cccc(O)c4oc23)O1` (stereo not given): the GI50 was 46.5 µM (inactive) in the assay on KM12; 0.024 µM (active) with MCF7; 33 µM (inactive) in the assay on UACC-257; 21.2 µM (inactive) in the assay on NCI-H226; 17.9 µM (inactive) in the assay with BT-549; > 100 µM (inactive) in the assay on MOLT-4. For the same molecule, the GI50 is 19.5 µM (inactive) in the assay on SK-OV-3; 18.4 µM (inactive) in the assay on SF-539; 18.2 µM (inactive) in the assay with ACHN; 18 µM (inactive) in the assay with UO-31; 28.6 µM (inactive) in the assay on SN12C; 21.6 µM (inactive) with OVCAR-8. Moreover, the GI50 was 16.6 µM (inactive) with NCI-H522; 16.6 µM (inactive) in the assay with CAKI-1; 5.7 µM (inactive) in the assay on LOX IMVI; 26.3 µM (inactive) with SNB-19; 47.6 µM in the assay on HCT-15; 18.7 µM (inactive) in the assay on OVCAR-4. In the assay on Malme-3M, the GI50 is 25.2 µM (inactive).
On to `Cn1c(=O)cc(N2CCCC2)[nH]c1=O`, for which the GI50 in the assay on KM12, in the assay with MCF7, in the assay with UACC-257, in the assay on NCI-H226, in the assay on BT-549 and with MOLT-4 was > 100 µM (inactive) each time. For the same molecule, the GI50 with SF-539, in the assay with ACHN, in the assay with SN12C, in the assay with OVCAR-8, with NCI-H522 and in the assay on CAKI-1 was > 100 µM (inactive) in each case. Besides, the GI50 in the assay on LOX IMVI was > 100 µM (inactive); with SNB-19, > 100 µM (inactive); in the assay on HCT-15 it was greater than 100 µM; in the assay with OVCAR-4, > 100 µM (inactive); with Malme-3M it was > 100 µM (inactive).
Turning to `CCOc1ccccc1NC(=O)C(=O)C(/C(=N/N)C(=O)OC)c1nc2ccc([N+](=O)[O-])cc2nc1O` (stereo not given), the GI50 in the assay with KM12 was > 100 µM (inactive); with MCF7, > 100 µM (inactive); in the assay with UACC-257, > 100 µM (inactive); in the assay on NCI-H226, > 100 µM (inactive); with BT-549, > 100 µM (inactive); in the assay with MOLT-4, 59.8 µM (inactive). Moreover, the GI50 in the assay with SK-OV-3 was > 100 µM (inactive); in the assay on SF-539, > 100 µM (inactive); in the assay on SN12C, > 100 µM (inactive); in the assay with OVCAR-8, > 100 µM (inactive); in the assay with NCI-H522, 58.3 µM (inactive); in the assay with CAKI-1 it was > 100 µM (inactive). For the same molecule, the GI50 was > 100 µM (inactive) in the assay with LOX IMVI; > 100 µM (inactive) in the assay on OVCAR-3; greater than 100 µM in the assay with HCT-15; > 100 µM (inactive) with OVCAR-4; > 100 µM (inactive) with Malme-3M.
For the molecule `CC[C@@H]1CC[C@@H]2[C@H](CC[C@]3(C)[C@@H](OS(=O)(=O)c4ccc(C)cc4)CC[C@@H]23)[C@H]1CO`, the GI50 in the assay on KM12 is > 100 µM (inactive); with MCF7, 43.3 µM (inactive); in the assay with UACC-257 it was 80.2 µM (inactive); in the assay on NCI-H226, > 100 µM (inactive); in the assay with BT-549 it was > 100 µM (inactive); in the assay on MOLT-4, > 100 µM (inactive). Besides, the GI50 is 81.5 µM (inactive) in the assay on SF-539; > 100 µM (inactive) in the assay on ACHN; 21.3 µM (inactive) in the assay with UO-31; 78.5 µM (inactive) with SN12C; > 100 µM (inactive) with OVCAR-8; > 100 µM (inactive) with NCI-H522. Further, the GI50 in the assay on CAKI-1 was > 100 µM (inactive); with LOX IMVI, 23.8 µM (inactive); in the assay on OVCAR-3 it was > 100 µM (inactive); in the assay with SNB-19, > 100 µM (inactive); in the assay on HCT-15, 82.4 µM; in the assay with OVCAR-4, > 100 µM (inactive). Besides, the GI50 in the assay with Malme-3M is > 100 µM (inactive).
Turning to `O=C1O[C@H]2[C@H](O)[C@@H](OC(=O)c3cc(O)c(O)c4c3[C@@H]3C1=CC(=O)C(O)(O)C3(O)O4)[C@H](OC(=O)c1cc(O)c(O)c(O)c1)O[C@@H]2CO` (stereo not given in full) [FUROSIN], the GI50 with KM12 is 26.7 µM (inactive); with MCF7 it was > 100 µM (inactive); in the assay on UACC-257 it was > 100 µM (inactive); with NCI-H226 it was > 100 µM (inactive); in the assay on BT-549 it was > 100 µM (inactive); in the assay on MOLT-4, > 100 µM (inactive). Besides, the GI50 in the assay on SK-OV-3 is 86.5 µM (inactive); in the assay on ACHN it was 41.6 µM (inactive); in the assay on UO-31, 57.1 µM (inactive); with SN12C, > 100 µM (inactive); in the assay with OVCAR-8, 79.1 µM (inactive); in the assay on NCI-H522 it was 45.4 µM (inactive). Also, the GI50 in the assay with CAKI-1 is > 100 µM (inactive); in the assay on LOX IMVI, 48 µM (inactive); in the assay on OVCAR-3, 33.2 µM (inactive); in the assay with SNB-19, > 100 µM (inactive); with HCT-15, 36.4 µM; in the assay on OVCAR-4, > 100 µM (inactive). In addition, in the assay with Malme-3M, the GI50 is > 100 µM (inactive).
Regarding `CCCc1c(O)nc2ccccc2c1O`, the GI50 with KM12, in the assay with MCF7, in the assay with UACC-257, with NCI-H226, in the assay with BT-549 and with MOLT-4 was > 100 µM (inactive) throughout. In addition, the GI50 in the assay with SF-539, in the assay on ACHN, in the assay on UO-31, with SN12C, in the assay with OVCAR-8 and in the assay with NCI-H522 was > 100 µM (inactive) in each case. Moreover, the GI50 in the assay with CAKI-1 was > 100 µM (inactive); with LOX IMVI it was > 100 µM (inactive); in the assay with OVCAR-3, > 100 µM (inactive); in the assay with SNB-19, > 100 µM (inactive); in the assay on HCT-15 it was greater than 100 µM; in the assay on OVCAR-4, > 100 µM (inactive). In the assay with Malme-3M, the GI50 was > 100 µM (inactive).
For `CCOC(=O)c1cc(C2CCN(c3ccccc3)C2=O)c(C(=O)/C=C(/C)N)[nH]1` (stereo not given), the GI50 was > 100 µM (inactive) with KM12; 54.6 µM (inactive) in the assay on MCF7; 94.8 µM (inactive) with UACC-257; 20.5 µM (inactive) in the assay on NCI-H226; > 100 µM (inactive) in the assay on BT-549; 39.6 µM (inactive) in the assay with MOLT-4. Also, the GI50 in the assay on SK-OV-3 was 16.6 µM (inactive); with ACHN, 40.6 µM (inactive); in the assay on UO-31, 49.2 µM (inactive); with SN12C, 21.8 µM (inactive); with OVCAR-8, 28.3 µM (inactive); in the assay with NCI-H522, 18.5 µM (inactive). Besides, the GI50 with CAKI-1 was 21.3 µM (inactive); with LOX IMVI, 28 µM (inactive); in the assay on OVCAR-3, 39.6 µM (inactive); with SNB-19, 21.3 µM (inactive); with HCT-15 it was greater than 100 µM; in the assay with OVCAR-4 it was 42.5 µM (inactive). For the same molecule, the GI50 in the assay with Malme-3M is 17.6 µM (inactive).
With `COc1ccc2oc(=O)cc(C)c2c1`, the GI50 with KM12, in the assay with MCF7, with UACC-257, in the assay with NCI-H226, in the assay with BT-549 and in the assay on MOLT-4 was > 100 µM (inactive) each time. The GI50 with SF-539 is > 100 µM (inactive); in the assay with ACHN, > 100 µM (inactive); in the assay on UO-31, 91.4 µM (inactive); in the assay with SN12C, > 100 µM (inactive); with OVCAR-8, > 100 µM (inactive); with NCI-H522, > 100 µM (inactive). For the same molecule, the GI50 in the assay on CAKI-1, in the assay with LOX IMVI, in the assay with OVCAR-3, in the assay on SNB-19, with OVCAR-4 and in the assay with Malme-3M was > 100 µM (inactive) throughout.
`COc1cccc2c1OC1c3ccccc3OCC1C2` (stereo not given): the GI50 in the assay with KM12 is > 100 µM (inactive); in the assay with MCF7, > 100 µM (inactive); with UACC-257, 83.6 µM (inactive); in the assay on NCI-H226 it was > 100 µM (inactive); in the assay with BT-549, 62.2 µM (inactive); with MOLT-4 it was 96.2 µM (inactive). Further, the GI50 in the assay with SK-OV-3 is > 100 µM (inactive); with SF-539, > 100 µM (inactive); in the assay with UO-31, 48 µM (inactive); with SN12C, > 100 µM (inactive); in the assay with OVCAR-8, > 100 µM (inactive); in the assay on NCI-H522 it was > 10 µM (inactive). For the same molecule, the GI50 is > 100 µM (inactive) in the assay with CAKI-1; > 100 µM (inactive) in the assay with LOX IMVI; > 100 µM (inactive) with OVCAR-3; greater than 100 µM in the assay on HCT-15; > 100 µM (inactive) in the assay on Malme-3M.
Take `O=c1[nH]nc(Nc2ccc(Cl)cc2)c2nnn(-c3ccc([N+](=O)[O-])cc3)c12`: the GI50 in the assay on KM12 is 26.4 µM (inactive); with MCF7, 16.6 µM (inactive); in the assay with UACC-257, 34.8 µM (inactive); in the assay on NCI-H226, 42.1 µM (inactive); in the assay on BT-549 it was 19.2 µM (inactive); with MOLT-4 it was 8.63 µM (inactive). In addition, the GI50 was 17.5 µM (inactive) in the assay on SF-539; 43.3 µM (inactive) in the assay on ACHN; 26.9 µM (inactive) in the assay with SN12C; 16.2 µM (inactive) in the assay with OVCAR-8; 4.47 µM (inactive) in the assay with NCI-H522; 39.5 µM (inactive) in the assay with CAKI-1. Further, the GI50 in the assay with LOX IMVI was 14.5 µM (inactive); with SNB-19 it was 30.9 µM (inactive); in the assay with HCT-15, 14.4 µM; in the assay on OVCAR-4, 23.8 µM (inactive); in the assay with Malme-3M, 26.1 µM (inactive).
For `CC(C)CC1c2[nH]c3ccccc3c2C[C@H]2C(=O)NC(COC(C)(C)C)C(=O)N12` (stereo not given in full), the GI50 in the assay on KM12 is 24.1 µM (inactive); in the assay with MCF7, 31.6 µM (inactive); with UACC-257 it was 19 µM (inactive); in the assay with NCI-H226 it was 33.2 µM (inactive); in the assay on BT-549, 23.6 µM (inactive); with MOLT-4, 22.2 µM (inactive). Also, the GI50 in the assay with SK-OV-3 was > 100 µM (inactive); with ACHN, 26.8 µM (inactive); with UO-31 it was 32.1 µM (inactive); in the assay on SN12C, 21.2 µM (inactive); in the assay with OVCAR-8 it was 33.1 µM (inactive); with NCI-H522, 16.4 µM (inactive). Moreover, the GI50 in the assay with CAKI-1 is 28.2 µM (inactive); in the assay on LOX IMVI, 17.3 µM (inactive); in the assay on OVCAR-3, 3.05 µM (inactive); with SNB-19 it was 33.9 µM (inactive); in the assay on HCT-15, 26.9 µM; with OVCAR-4, 30.5 µM (inactive). Further, the GI50 in the assay with Malme-3M is 19.6 µM (inactive).
